{"source": "patent US20090306144A1", "about": "“PYRIDINE DERIVATIVES OF ALKYL OXINDOLES AS 5-HT7 RECEPTOR ACTIVE AGENTS” (priority 2004, published 2009)", "note": "Counter-ions that a name gives are not always drawn."}
{"biological_target": "T1, 5-HT7 receptor (Homo sapiens, UniProt P34969)", "T1 construct": "expressed in transfected cells; host or cells: CHO cell culture", "T1 sequence (P34969 whole entry)": "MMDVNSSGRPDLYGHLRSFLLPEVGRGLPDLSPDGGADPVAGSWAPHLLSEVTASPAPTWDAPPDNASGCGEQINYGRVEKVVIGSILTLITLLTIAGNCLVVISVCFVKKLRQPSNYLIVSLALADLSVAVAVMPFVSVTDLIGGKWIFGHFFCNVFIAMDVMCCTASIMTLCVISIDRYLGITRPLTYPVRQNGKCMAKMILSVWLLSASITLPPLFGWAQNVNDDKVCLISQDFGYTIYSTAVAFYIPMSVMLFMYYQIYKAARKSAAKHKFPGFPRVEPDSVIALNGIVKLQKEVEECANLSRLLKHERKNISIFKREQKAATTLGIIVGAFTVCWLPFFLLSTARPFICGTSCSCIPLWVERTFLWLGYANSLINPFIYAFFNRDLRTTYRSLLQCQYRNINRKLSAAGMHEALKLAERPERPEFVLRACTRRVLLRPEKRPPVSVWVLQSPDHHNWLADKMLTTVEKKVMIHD", "assay": "5-HT7 receptor binding (3H-LSD, CHO cell culture)", "conditions": "ligand 3H-LSD, non-specific binding clozapine (25 μM), read-out: Inhibition of 5-HT7 receptor binding, IC50", "method": "(§1) Human cloned receptors or frontal cortex preparations of male Wistar rats weighing 120-200 g were used for the experiments. The protein contents of membrane preparations were determined according to the method of Lowry (1951).\n(§2) In the course of 5-HT7 receptor binding studies the applied tissue was CHO cell culture, the ligand was ^3H-LSD, and for the non-specific binding clozapine (25 μM) was used as ligand. In the serotonin uptake experiment cortex was used as tissue. As ligand tritiated serotonin, as non-specifically binding ligand fluoxetine (100 μM) was applied.\n(§3) IC50 is the concentration where the difference between whole binding and non-specific binding in the presence of 10 μM serotonin creatinine sulfate is 50%. The compounds with an IC50 value smaller than 100 nmol were considered effective in this test.", "units": {"IC50": "nM"}}
{"compound": "O=C1Nc2cc(F)ccc2C1CCCCN1CCc2sc(Cl)cc2C1", "note": "(centres unmarked) [Example 10, 3-[4-(2-Chloro-6,7-dihydro-4H-thieno[3,2-c]-pyridin-5-yl)-butyl]-6-fluoro-1,3-dihydro-2H-indol-2-one monohydrochloride]", "IC50": "< 100"}
{"compound": "O=C1Nc2ccccc2C1CCCCN1CCc2sc(Cl)cc2C1", "note": "(centres unmarked) [Example 8, 3-[4-(2-Chloro-6,7-dihydro-4H-thieno[3,2-c]-pyridin-5-yl)-butyl]-1,3-dihydro-2H-indol-2-one monohydrochloride]", "IC50": "< 100"}
{"compound": "O=C1Nc2cc(F)ccc2C1CCCCN1CCc2sccc2C1", "note": "(centres unmarked) [Example 9, 3-[4-(6,7-Dihydro-4H-thieno[3,2-c]pyridin-5-yl)-butyl]-6-fluoro-1,3-dihydro-2H-indol-2-one mono-hydrochloride]", "IC50": "< 100"}
{"compound": "O=C1Nc2ccc(F)cc2C1CCCCN1CCc2sc(Cl)cc2C1", "note": "(centres unmarked) [Example 11, 3-[4-(2-Chloro-6,7-dihydro-4H-thieno[3,2-c]-pyridin-5-yl)-butyl]-5-fluoro-1,3-dihydro-2H-indol-2-one monohydrochloride]", "IC50": "< 100"}
{"compound": "O=C1Nc2ccc(F)cc2C1CCCCN1CC=C(c2cccc(C(F)(F)F)c2)CC1", "note": "(centres unmarked) [Example 14, 5-Fluoro-3-{4-[4-(3-trifluoromethyl-phenyl)-1,2,3,6-tetrahydropyridin-1-yl]-butyl}-1,3-dihydro-2H-indol-2-one monohydrochloride]", "IC50": "< 100"}
{"compound": "O=C1Nc2ccccc2C1CCCCN1CC=C(c2cccc(C(F)(F)F)c2)CC1", "note": "(centres unmarked) [Example 5, 3-{4-[4-(3-Trifluoromethyl-phenyl)-1,2,3,6-tetrahydropyridin-1-yl]-butyl}-1,3-dihydro-2H-indol-2-one monooxalate]", "IC50": "< 100"}
{"compound": "O=C1Nc2ccccc2C1CCCCN1CC=C(c2ccc(Cl)cc2)CC1", "note": "(centres unmarked) [Example 13, 3-{4-[4-(4-Chlorophenyl)-1,2,3,6-tetrahydro-pyridin-1-yl]-butyl}-1,3-dihydro-2H-indol-2-one]", "IC50": "< 100"}
{"compound": "O=C1Nc2ccccc2C1CCCCN1CCc2sccc2C1", "note": "(centres unmarked) [Example 6, 3-[4-(6,7-Dihydro-4H-thieno[3,2-c]pyridin-5-yl)-butyl]-1,3-dihydro-2H-indol-2-one monooxalate]", "IC50": "< 100"}
{"compound": "O=C1Nc2ccc(F)cc2C1CCCCN1CCc2sccc2C1", "note": "(centres unmarked) [Example 7, 3-[4-(6,7-Dihydro-4H-thieno[3,2-c]pyridin-5-yl)-butyl]-5-fluoro-1,3-dihydro-2H-indol-2-one monohydrochloride]", "IC50": "< 100"}
{"compound": "O=C1Nc2cc(F)ccc2C1CCCCN1CC=C(c2cccc(C(F)(F)F)c2)CC1", "note": "(centres unmarked) [Example 12, 6-Fluoro-3-{4-[4-(3-trifluoromethyl-phenyl)-1,2,3,6-tetrahydropyridin-1-yl]-butyl}-1,3-dihydro-2H-indol-2-one monohydrochloride]", "IC50": "< 100"}
{"biological_target": "T2, 5-HT uptake (Rattus norvegicus, UniProt P31652)", "T2 construct": "In the serotonin uptake experiment cortex was used as tissue; from tissue; host or cells: frontal cortex of male Wistar rats", "T2 sequence (P31652 whole entry)": "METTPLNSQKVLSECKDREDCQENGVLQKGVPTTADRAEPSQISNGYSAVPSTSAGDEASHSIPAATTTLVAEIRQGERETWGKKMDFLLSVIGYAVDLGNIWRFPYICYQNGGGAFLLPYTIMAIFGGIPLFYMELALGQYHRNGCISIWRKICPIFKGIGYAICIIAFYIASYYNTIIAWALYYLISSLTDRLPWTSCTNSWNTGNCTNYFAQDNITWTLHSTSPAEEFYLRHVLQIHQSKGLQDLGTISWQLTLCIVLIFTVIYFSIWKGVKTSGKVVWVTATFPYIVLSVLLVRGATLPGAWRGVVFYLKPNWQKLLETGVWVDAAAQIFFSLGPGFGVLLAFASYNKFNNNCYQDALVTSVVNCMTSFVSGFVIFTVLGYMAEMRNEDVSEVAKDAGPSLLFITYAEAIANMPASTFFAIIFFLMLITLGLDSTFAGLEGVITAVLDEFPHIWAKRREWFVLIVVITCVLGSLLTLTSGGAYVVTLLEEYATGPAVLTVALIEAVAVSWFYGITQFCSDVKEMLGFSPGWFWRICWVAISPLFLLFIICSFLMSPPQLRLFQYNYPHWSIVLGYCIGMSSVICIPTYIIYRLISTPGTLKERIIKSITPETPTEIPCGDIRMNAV", "assay": "Serotonin uptake experiment (tritiated serotonin, cortex)", "format": "biochemical", "conditions": "cortex tissue; ligand tritiated serotonin; non-specific ligand fluoxetine (100 μM); read-out: Inhibition of 5-HT uptake, IC50", "method": "as §1, §2, §3", "units": {"IC50": "nM"}}
{"compound": "O=C1Nc2ccc(F)cc2C1CCCCN1CC=C(c2cccc(C(F)(F)F)c2)CC1", "note": "(centres unmarked) [Example 14, 5-Fluoro-3-{4-[4-(3-trifluoromethyl-phenyl)-1,2,3,6-tetrahydropyridin-1-yl]-butyl}-1,3-dihydro-2H-indol-2-one monohydrochloride]", "IC50": "< 100"}
{"compound": "O=C1Nc2ccccc2C1CCCCN1CC=C(c2ccc(Cl)cc2)CC1", "note": "(centres unmarked) [Example 13, 3-{4-[4-(4-Chlorophenyl)-1,2,3,6-tetrahydro-pyridin-1-yl]-butyl}-1,3-dihydro-2H-indol-2-one]", "IC50": "< 100"}
{"tested_on": "not given", "assay": "not given", "conditions": "not given", "units": {"melting point": "°C"}}
{"compound": "O=C1Nc2cc(F)ccc2C1CCCCN1CC=C(c2cccc(C(F)(F)F)c2)CC1", "note": "(centres unmarked) (as salt: hydrochloride) [Example 12, 6-Fluoro-3-{4-[4-(3-trifluoromethyl-phenyl)-1,2,3,6-tetrahydropyridin-1-yl]-butyl}-1,3-dihydro-2H-indol-2-one monohydrochloride]", "melting point": "203 to 205"}
{"compound": "O=C1Nc2cc(F)ccc2C1CCCCN1CCc2sccc2C1", "note": "(centres unmarked) (as salt: hydrochloride) [Example 9, 3-[4-(6,7-Dihydro-4H-thieno[3,2-c]pyridin-5-yl)-butyl]-6-fluoro-1,3-dihydro-2H-indol-2-one mono-hydrochloride]", "melting point": "194 to 197"}
{"compound": "O=C1Nc2ccccc2C1CCCCN1CCc2sc(Cl)cc2C1", "note": "(centres unmarked) (as salt: hydrochloride) [Example 8, 3-[4-(2-Chloro-6,7-dihydro-4H-thieno[3,2-c]-pyridin-5-yl)-butyl]-1,3-dihydro-2H-indol-2-one monohydrochloride]", "melting point": "103 to 106"}
{"compound": "O=C1Nc2ccc(F)cc2C1CCCCN1CCc2sc(Cl)cc2C1", "note": "(centres unmarked) (as salt: hydrochloride) [Example 11, 3-[4-(2-Chloro-6,7-dihydro-4H-thieno[3,2-c]-pyridin-5-yl)-butyl]-5-fluoro-1,3-dihydro-2H-indol-2-one monohydrochloride]", "melting point": "161 to 163"}
{"compound": "O=C1Nc2ccccc2C1CCCCN1CC=C(c2ccccc2)CC1", "note": "(centres unmarked)", "melting point": "121 to 126"}
{"compound": "O=C1Nc2ccccc2C1CCCCN1CC=C(c2ccc(Cl)cc2)CC1", "note": "(centres unmarked) [Example 13, 3-{4-[4-(4-Chlorophenyl)-1,2,3,6-tetrahydro-pyridin-1-yl]-butyl}-1,3-dihydro-2H-indol-2-one]", "melting point": "122 to 124"}
{"compound": "O=C1Nc2ccccc2C1CCCCN1CC=C(c2cccc(C(F)(F)F)c2)CC1", "note": "(centres unmarked) (as salt: oxalate) [Example 5, 3-{4-[4-(3-Trifluoromethyl-phenyl)-1,2,3,6-tetrahydropyridin-1-yl]-butyl}-1,3-dihydro-2H-indol-2-one monooxalate]", "melting point": "159 to 161"}
{"compound": "O=C1Nc2cc(F)ccc2C1CCCCN1CCc2sc(Cl)cc2C1", "note": "(centres unmarked) (as salt: hydrochloride) [Example 10, 3-[4-(2-Chloro-6,7-dihydro-4H-thieno[3,2-c]-pyridin-5-yl)-butyl]-6-fluoro-1,3-dihydro-2H-indol-2-one monohydrochloride]", "melting point": "214 to 216"}
{"compound": "O=C1Nc2ccc(F)cc2C1CCCCN1CCc2sccc2C1", "note": "(centres unmarked) (as salt: hydrochloride) [Example 7, 3-[4-(6,7-Dihydro-4H-thieno[3,2-c]pyridin-5-yl)-butyl]-5-fluoro-1,3-dihydro-2H-indol-2-one monohydrochloride]", "melting point": "192 to 194"}
{"compound": "O=C1Nc2ccc(F)cc2C1CCCCN1CC=C(c2cccc(C(F)(F)F)c2)CC1", "note": "(centres unmarked) (as salt: hydrochloride) [Example 14, 5-Fluoro-3-{4-[4-(3-trifluoromethyl-phenyl)-1,2,3,6-tetrahydropyridin-1-yl]-butyl}-1,3-dihydro-2H-indol-2-one monohydrochloride]", "melting point": "201 to 204"}
{"compound": "O=C1Nc2ccccc2C1CCCCN1CCc2sccc2C1", "note": "(centres unmarked) (as salt: oxalate) [Example 6, 3-[4-(6,7-Dihydro-4H-thieno[3,2-c]pyridin-5-yl)-butyl]-1,3-dihydro-2H-indol-2-one monooxalate]", "melting point": "168 to 170"}
